Test results reported in US20240293343A1, “Benzylideneaminoguanidine derivatives as NR2B-selective NMDA receptor antagonists and their therapeutic applications” (InFlectis BioScience, priority 2023, published 2024).
Like-named read-outs stand apart in the source and are kept apart here.

Key:
ion channel of the NMDAR = experiment: NMDAR radiolabeled ligand displacement assay, MK-801; format: binding, rat; details: pore channel
NMDAR (NR1A/NR2B) = molecular target: T1, NMDAR (NR1A/NR2B) (Homo sapiens, UniProt Q05586+Q13224); experiment: NMDAR (NR1A/NR2B) Human Glutamate Ion Channel Cell Based Antagonist Ca2+ Flux Assay; details: Hek293 cells expressing NMDAR subunit 1A/2B, FLIPR Tetra; read-out: IC50, antagonist activity on Ca^2+ flux
T1 construct: host or cells: HEK293
Method: Briefly, Hek293 cells stably transfected to express NMDAR subunit 1A/2B were seeded into 384-well microplates and incubated at 37° C. Cells were loaded with dye prior to testing. […] Cells were further incubated for 30-60 minutes at 37° C., and compound activity on calcium flux was measured on a FLIPR Tetra (MDS).

[1] = test system: NMDA-induced currents / cytosolic Ca^2+ load; details: Ruiz et al. 2020; cited from earlier work
[2] = test system: glutamate binding to the NMDAR NR2 subunit; experiment: NMDAR radiolabeled ligand displacement assay, CGP-39653; design: species or system rat; details: glutamate site
[3] = solid and solution states; cited from earlier work
[4] = molecular target: T2, glycine binding to the NMDAR NR1 subunit (Rattus norvegicus, UniProt P35439); experiment: NMDAR radiolabeled ligand displacement assay, MDL-105,519; details: glycine site
T2 construct: tissue Eurofins 232910/233010/234000/SafetyScreen44 Panel

[5] = human, cited from earlier work
[6] = molecular target: T3, Ifenprodil binding site on the NR2B subunit (Rattus norvegicus, UniProt P35439+Q00960); experiment: NMDAR radiolabeled ligand displacement assay, Ifenprodil
T3 construct: tissue Eurofins 232910/233010/234000/SafetyScreen44 Panel; host or cells: rat cerebral cortex

sciatic nerve injury = experiment: Mouse model of sciatic nerve injury (toe spreading, electromyography, histology); format: in vivo, mice (Swiss CD-1); details: 1.5 mg/kg once daily per os
Method: 6-week-old Swiss (CD-1) male mice were provided by Janvier Labs and housed in an animal facility in a day/night inversed cycle. […] Mice were anesthetized with ketamine chlorohydrate (100 mg/kg) and xylazine (10 mg/kg) and placed on a heating pad. Skin was incised and the sciatic nerve exposed at mid-thigh level and lesioned with fine forceps to ensure peripheral injury. The nerve was crushed twice with a haemostatic forceps (width 1.5 mm; Koenig, Strasbourg, France) with a 90-degree rotation between each crush. The skin incision was sutured, and mice were allowed to recover isolated until the end of anesthesia. The hind limb, contralateral to the lesion, served as uninjured control. Analgesia was induced prior surgery and the following days with bunepronorphine (0.1 mg/kg). […] The loss of nerve function recovered progressively over a 4-5 weeks period after mechanical insult.
At day 0, on day 7, and on day 14 and day 21 post-surgery, the functionality of the nerve fibers was determined with an electromyography apparatus (Dantec, Natus, France), on the ipsilateral side and contralateral side. […] The compound muscle action potential (CMAP) was measured: more precisely the amplitude (mV) and the latency (ms) of the action potential were recorded in gastrocnemius muscle after stimulation of the sciatic nerve. […]

[7] = in vivo

T1 sequence (Q13224 27-1484, other chains not shown): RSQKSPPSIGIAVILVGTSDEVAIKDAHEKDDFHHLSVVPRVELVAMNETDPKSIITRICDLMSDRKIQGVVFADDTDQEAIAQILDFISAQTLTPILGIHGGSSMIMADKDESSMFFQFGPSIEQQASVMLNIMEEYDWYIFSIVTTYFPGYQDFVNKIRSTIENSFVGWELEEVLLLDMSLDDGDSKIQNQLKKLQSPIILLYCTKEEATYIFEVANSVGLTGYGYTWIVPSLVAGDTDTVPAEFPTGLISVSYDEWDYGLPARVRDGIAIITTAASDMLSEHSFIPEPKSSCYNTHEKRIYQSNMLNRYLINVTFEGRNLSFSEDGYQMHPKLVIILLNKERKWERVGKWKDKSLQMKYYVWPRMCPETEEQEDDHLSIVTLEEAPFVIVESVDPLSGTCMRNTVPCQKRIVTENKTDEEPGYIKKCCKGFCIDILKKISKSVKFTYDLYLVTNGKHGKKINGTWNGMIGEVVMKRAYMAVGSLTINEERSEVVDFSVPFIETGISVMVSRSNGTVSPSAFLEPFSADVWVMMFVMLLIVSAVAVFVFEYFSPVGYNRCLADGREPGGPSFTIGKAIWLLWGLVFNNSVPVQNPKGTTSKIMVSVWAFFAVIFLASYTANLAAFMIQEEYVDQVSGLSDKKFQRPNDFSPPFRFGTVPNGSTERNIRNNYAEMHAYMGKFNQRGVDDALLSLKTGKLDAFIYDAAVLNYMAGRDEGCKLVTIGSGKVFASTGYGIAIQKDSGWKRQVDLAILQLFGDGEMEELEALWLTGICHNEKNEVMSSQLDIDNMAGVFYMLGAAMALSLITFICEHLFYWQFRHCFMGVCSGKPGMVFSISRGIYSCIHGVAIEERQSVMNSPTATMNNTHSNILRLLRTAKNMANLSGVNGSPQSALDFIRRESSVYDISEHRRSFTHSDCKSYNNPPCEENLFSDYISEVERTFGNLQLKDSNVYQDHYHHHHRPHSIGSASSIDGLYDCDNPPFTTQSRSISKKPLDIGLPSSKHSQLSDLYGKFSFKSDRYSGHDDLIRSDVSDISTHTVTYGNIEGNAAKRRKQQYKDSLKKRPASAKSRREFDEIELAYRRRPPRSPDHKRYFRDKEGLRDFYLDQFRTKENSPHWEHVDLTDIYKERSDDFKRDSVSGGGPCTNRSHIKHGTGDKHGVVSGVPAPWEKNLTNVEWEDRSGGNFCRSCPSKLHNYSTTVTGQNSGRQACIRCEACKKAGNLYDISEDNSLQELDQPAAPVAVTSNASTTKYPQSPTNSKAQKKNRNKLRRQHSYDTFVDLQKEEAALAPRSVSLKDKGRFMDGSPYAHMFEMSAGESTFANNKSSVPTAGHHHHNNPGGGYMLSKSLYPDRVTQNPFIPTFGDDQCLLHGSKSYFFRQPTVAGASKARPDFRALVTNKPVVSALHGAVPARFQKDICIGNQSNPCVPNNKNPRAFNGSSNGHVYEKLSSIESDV
T3 sequence (Q00960 27-1482, other chains not shown): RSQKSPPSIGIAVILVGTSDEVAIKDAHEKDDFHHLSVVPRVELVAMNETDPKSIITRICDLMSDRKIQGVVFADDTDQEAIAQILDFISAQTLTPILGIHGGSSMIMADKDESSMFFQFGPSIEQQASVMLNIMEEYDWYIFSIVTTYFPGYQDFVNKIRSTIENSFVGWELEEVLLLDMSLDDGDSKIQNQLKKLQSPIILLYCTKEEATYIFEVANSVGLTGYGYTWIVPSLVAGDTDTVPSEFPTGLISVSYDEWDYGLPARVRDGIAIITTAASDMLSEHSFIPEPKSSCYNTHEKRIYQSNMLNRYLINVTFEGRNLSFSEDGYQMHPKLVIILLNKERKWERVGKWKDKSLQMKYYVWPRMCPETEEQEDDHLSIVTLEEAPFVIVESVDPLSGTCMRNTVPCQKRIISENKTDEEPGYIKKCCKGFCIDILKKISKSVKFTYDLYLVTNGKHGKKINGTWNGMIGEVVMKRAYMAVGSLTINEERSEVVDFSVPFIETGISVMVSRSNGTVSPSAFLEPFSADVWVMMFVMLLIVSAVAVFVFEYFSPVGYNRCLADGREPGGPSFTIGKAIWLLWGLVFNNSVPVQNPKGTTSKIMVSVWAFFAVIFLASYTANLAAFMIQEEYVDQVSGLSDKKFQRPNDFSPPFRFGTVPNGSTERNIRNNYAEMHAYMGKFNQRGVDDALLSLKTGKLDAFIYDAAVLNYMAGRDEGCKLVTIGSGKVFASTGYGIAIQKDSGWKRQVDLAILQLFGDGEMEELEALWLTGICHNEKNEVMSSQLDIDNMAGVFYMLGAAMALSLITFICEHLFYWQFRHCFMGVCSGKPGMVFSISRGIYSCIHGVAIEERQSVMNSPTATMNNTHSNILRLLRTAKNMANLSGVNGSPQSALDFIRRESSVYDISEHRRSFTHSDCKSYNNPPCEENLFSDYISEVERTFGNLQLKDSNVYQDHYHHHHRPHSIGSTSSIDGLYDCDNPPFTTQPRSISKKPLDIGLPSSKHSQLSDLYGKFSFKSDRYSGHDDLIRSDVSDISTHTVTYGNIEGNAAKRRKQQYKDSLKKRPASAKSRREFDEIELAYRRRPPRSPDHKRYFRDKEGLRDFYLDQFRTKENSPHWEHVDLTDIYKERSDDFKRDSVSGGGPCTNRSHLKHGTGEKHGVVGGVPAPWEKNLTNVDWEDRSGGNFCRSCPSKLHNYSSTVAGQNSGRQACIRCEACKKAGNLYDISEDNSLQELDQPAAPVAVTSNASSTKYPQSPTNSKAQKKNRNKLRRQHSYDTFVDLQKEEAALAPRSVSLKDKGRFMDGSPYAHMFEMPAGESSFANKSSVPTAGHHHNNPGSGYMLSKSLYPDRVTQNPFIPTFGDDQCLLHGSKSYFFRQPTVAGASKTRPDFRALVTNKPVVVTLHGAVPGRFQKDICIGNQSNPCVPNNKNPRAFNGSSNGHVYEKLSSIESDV

SMILES | displacement of radiolabeled ligand MK-801 (ion channel of the NMDAR) | IC50 (NMDAR (NR1A/NR2B)) | displacement of radiolabeled ligand CGP-39653 [2] | displacement of radiolabeled ligand MDL-105,519 [4] | IC50 [6] | other results
CC(=O)O.N=C(N)N/N=C/c1c(Cl)cccc1Cl [Compound 1, 2-(2,6-dichlorobenzylidene)hydrazine-carboximidamide acetate salt] | unable to displace | 625 nM | unable to displace | unable to displace | 400 nM | NMDA-induced currents [1]: reducing; NMDA-induced cytosolic Ca^2+ load [1]: reducing; spontaneous isomerization (E/Z) [3]: practically insignificant; adverse events resembling those present in schizophrenia ([5]; controlled and open therapeutic trials): none of the adverse events seen with compound 1 (i.e. guanabenz) resembled those present in schizophrenia; cardiovascular side effects [5]: rare, apart from a decrease in heart rate; reported side effects [5]: drowsiness, dry mouth, dizziness and weakness
N=C(N)N/N=C/c1ccc(F)cc1Cl [Compound 3, 2-(2-chloro-4-fluoro-benzylidene)hydrazine-carboximidamide] | unable to displace | 702 nM | unable to displace | unable to displace | 250 nM | recovery of toe spreading compared to control group (sciatic nerve injury): faster; recovery of toe spreading, median time (printed median survival) (sciatic nerve injury; ipsilateral paw, vehicle usually after 10 days): 8 days
N=C(N)N/N=C/c1ccc(O)cc1Cl [Compound 19, 2-(2-chloro-4-hydroxybenzylidene)hydrazine-carboximidamide] | – | – | – | – | – | adverse events resembling those present in schizophrenia ([7]; human): None of the adverse events seen with compound 2 and 19 resembled those present in schizophrenia; compound-related hypotension and dizziness ([7]; human): No clinically significant compound 2 and 19-related hypotension, and dizziness; metabolite status in human [7]: major human metabolite of compound 2
C[C@]12N[C@H](Cc3ccccc31)c1ccccc12 [MK-801] | – | 69 nM | – | – | – | –
